Source: US20250134853A1, “COMPOUNDS AND METHODS FOR USING GALLOYLATED POLYPHENOLS TO TREAT DISEASES MEDIATED BY THIOL ISOMERASES” (Beth Israel Deaconess Medical Center, Inc., priority 2023, published 2025)
“Also recorded” adds a separate entry of the source. Where two headings read alike, the source gives them in different places.

Columns and labels:
[1] = tested on: SARS-CoV-2; experiment: Vero E6-based viral replication assay; format: cell-based
[2] = molecular target: ERp46 (Homo sapiens, UniProt Q8NBS9); experiment: Di-eosin-GSSG disulfide reductase assay, ERp46; format: biochemical
Chain of ERp46 (Q8NBS9 33-432, species assumed): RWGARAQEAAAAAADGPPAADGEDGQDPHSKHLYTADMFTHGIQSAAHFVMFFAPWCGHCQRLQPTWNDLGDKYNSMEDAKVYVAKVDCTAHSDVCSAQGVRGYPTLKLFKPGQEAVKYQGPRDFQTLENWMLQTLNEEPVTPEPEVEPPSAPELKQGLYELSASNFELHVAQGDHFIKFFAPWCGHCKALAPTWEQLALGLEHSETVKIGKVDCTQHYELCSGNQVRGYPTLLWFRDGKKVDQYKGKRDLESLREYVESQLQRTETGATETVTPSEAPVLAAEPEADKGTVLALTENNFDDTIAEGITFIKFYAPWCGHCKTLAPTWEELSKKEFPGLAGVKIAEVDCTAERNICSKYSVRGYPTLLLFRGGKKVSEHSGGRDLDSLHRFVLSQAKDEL
Source text: (§1) Di-eosin-GSSG disulfide reductase assay. […] Any fraction with a fold change >5 was kept.

[3] = molecular target: T1, SARS-CoV-2 M^pro (Severe acute respiratory syndrome coronavirus 2, UniProt P0DTD1); settings: literature values (Table 2); read-out: SARS-CoV-2 M^pro inhibition; cited from earlier work
[4] = tested on: thrombus formation following laser injury of cremaster arterioles; experiment: Laser-injury thrombosis model; format: in vivo, mice
Procedure: Laser-injury thrombosis model. Thrombus formation in response to laser injury was measured as described previously. See Grover S P, et al. J. Thromb. Haemost. 18:3078-85, 2020; Koseoglu S, et al. Arterioscler. Thromb. Vasc. Biol. 33:481-8, 2013; and Matsuura S, et al. Arterioscler. Thromb. Vasc. Biol. 40:e262-e72, 2020. Briefly, cremaster muscle arterioles were injured using a MicroPoint Laser System (Andor, Belfast, UK). Platelet and fibrin accumulation were measured by infusion of Dylight 649-labeled anti-platelet (CD42b; 0.1 μg/g body weight; Emfret Analytics) and DyLight 488-labeled anti-fibrin (clone 59D8; 0.3 μg/g) antibodies through a jugular vein catheter. Data were acquired before and after laser injury using the brightfield, 488/520 nm, and 640/670 nm channels. Images were captured for 250 seconds at 2 frames/s using a CCD camera (ORCA Flash 4.0, Hamamatsu Photonics, Japan) on an AX-70 fluorescence microscope (Olympus, Japan). Data were analyzed using Slidebook 6.0 (Intelligent Imaging Innovations). Data from 16 to 30 thrombi were used to determine the median value of the integrated fluorescence intensity to account for variability in thrombus formation under any given experimental condition. AUC was calculated for individual thrombi and normalized to injury lengths to evaluate statistical significance. Injury lengths were determined as previously described in Grover S P, et al. J. Thromb. Haemost. 18:3078-85, 2020.
The differences in platelet accumulation and fibrin formation were not secondary to differences in the extent of laser injury since injury size between control and PGHG-treated mice was indistinguishable (FIG. 10E).

[5] = molecular target: T2, PDI (Homo sapiens, UniProt P07237); experiment: Di-eosin-GSSG disulfide reductase assay, PDI; format: biochemical
T2 construct: FLAG; made in house; host or cells: Escherichia coli Origami B (DE3)
T2 sequence (P07237 18-508): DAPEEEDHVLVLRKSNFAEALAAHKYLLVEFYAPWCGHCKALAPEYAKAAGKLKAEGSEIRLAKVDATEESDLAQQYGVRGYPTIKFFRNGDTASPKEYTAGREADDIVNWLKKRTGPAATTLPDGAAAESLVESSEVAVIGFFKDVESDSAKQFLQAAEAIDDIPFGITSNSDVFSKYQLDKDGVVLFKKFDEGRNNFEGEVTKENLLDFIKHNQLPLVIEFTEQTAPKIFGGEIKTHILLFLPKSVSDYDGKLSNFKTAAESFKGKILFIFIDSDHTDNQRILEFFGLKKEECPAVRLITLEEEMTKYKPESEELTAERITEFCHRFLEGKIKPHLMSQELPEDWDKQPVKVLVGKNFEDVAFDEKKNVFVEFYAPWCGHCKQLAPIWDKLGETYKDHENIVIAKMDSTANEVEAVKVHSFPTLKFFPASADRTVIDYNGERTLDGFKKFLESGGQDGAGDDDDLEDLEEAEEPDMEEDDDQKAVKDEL
Procedure: Di-eosin-GSSG disulfide reductase assay. The probe di-eosin glutathione disulfide, di-eosin-GSSG, was prepared by incubating 100 μM of GSSG with 1 mM of eosin isothiocyanate in 100 mM potassium phosphate containing 2 mM EDTA (pH 7.4), at 25° C. overnight in the dark. The mixture was passed down a PD-10 column and different fractions were collected. A fold change of fluorescence (Ex: 520 nm, Em: 550 nm) was calculated using samples subjected to either vehicle or 20 mM of DTT. Any fraction with a fold change >5 was kept. Using a stock of 10 mM eosin isothiocyanate, a standard curve was generated and concentration of samples were determined accordingly. Di-eosin-GSSG cleavage of purified thiol isomerases and PDI domains was monitored in a 96-well fluorescence plate format. PDI, CGXC-PDI variants, ERp5, ERp57, ERp46 and PDI domains were assayed at 50 nM in the presence or absence of the indicated small molecules. The assay included a thiol isomerase assay buffer (39 mM KH2PO4, 61 mM K2HPO4, 2 mM EDTA, 5 M DTT, pH 7.4) and 150 nM of the di-eosin-GSSG probe. The increase in fluorescence was determined for 60 min by excitation at 520 nm and emission at 550 nm in a Synergy Biotek 4. The reduction of 150 nM di-eosin-GSSG by 5 μM DTT in the presence or absence of mentioned small molecule or proteins served as a negative control.

[6] = molecular target: T3, ERp72 (Homo sapiens, UniProt P13667); experiment: Di-eosin-GSSG disulfide reductase assay, ERp72; format: biochemical
T3 construct: recombinant His-tagged full-length ERp5, ERp72; His-tag; made in house; host or cells: Escherichia coli Origami B (DE3)
T3 sequence (P13667 21-645): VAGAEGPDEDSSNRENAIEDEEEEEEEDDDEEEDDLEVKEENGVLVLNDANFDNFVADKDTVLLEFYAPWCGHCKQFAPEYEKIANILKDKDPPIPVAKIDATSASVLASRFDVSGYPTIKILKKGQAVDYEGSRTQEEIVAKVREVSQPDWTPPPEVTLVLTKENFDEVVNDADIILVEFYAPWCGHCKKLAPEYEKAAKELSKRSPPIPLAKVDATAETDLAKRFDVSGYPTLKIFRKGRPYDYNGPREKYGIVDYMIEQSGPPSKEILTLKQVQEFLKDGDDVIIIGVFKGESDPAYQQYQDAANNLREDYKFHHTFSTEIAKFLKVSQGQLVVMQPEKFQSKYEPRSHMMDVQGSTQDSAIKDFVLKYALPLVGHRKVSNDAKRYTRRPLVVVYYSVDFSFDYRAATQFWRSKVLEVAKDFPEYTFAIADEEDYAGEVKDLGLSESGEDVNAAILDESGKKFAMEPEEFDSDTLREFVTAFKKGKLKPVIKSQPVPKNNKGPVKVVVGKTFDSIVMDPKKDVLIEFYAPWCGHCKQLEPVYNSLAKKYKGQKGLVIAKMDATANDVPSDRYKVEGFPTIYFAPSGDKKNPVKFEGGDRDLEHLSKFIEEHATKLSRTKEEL
Source text: (§2) Recombinant protein purification. Recombinant ‘double-tagged’ (streptavidin-binding protein-tagged and FLAG-tagged) full-length PDI, ERp57, recombinant His-tagged full-length ERp5, ERp72, PDI domain fragments, and PDI mutant were cloned into a pET-15b vector at the NdeI and BamHI sites and transformed into Escherichia coli Origami B (DE3) cells (EMD Chemicals). The recombinant proteins were expressed and isolated by affinity chromatography with complete His-Tag purification resin (Roche Applied Science) or Pierce High-Capacity Streptavidin Agarose beads and purified on a Superdex 200 (GE Healthcare).
as §1

[7] = molecular target: T4, ERp57 (Homo sapiens, UniProt P30101); experiment: Di-eosin-GSSG disulfide reductase assay, ERp57; format: biochemical
T4 construct: FLAG; made in house; host or cells: Escherichia coli Origami B (DE3)
T4 sequence (P30101 25-505): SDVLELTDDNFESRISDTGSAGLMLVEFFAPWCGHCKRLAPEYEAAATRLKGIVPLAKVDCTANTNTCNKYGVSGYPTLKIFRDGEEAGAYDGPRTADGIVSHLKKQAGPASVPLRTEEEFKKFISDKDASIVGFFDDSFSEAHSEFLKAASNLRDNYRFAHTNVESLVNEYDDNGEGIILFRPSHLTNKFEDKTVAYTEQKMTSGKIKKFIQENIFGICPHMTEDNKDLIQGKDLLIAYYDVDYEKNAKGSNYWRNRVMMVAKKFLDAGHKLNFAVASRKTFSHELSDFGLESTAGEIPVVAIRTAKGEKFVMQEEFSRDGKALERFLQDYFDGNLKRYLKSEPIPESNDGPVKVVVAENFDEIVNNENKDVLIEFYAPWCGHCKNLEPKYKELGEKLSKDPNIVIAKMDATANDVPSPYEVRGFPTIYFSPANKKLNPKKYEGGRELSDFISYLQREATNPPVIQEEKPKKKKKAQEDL
Source text: as §2, §1

[8] = molecular target: T1, SARS-CoV-2 M^pro; settings: cited from earlier work
[9] = molecular target: T2, PDI; experiment: Insulin reductase assay; format: biochemical; settings: PGHG incubated with PDI for 15 minutes
Procedure: Insulin reductase assay. Insulin was prepared by mixing 12.5 mg/mL insulin in 50 mM Tris-HCl, pH 8. 1 M HCl was carefully added to drop the pH to 2.0 for solution clarification. Once the solution clarifies, 1 M NaOH was added to rapidly adjust the pH back to 8.0. The solution was then adjusted to 1.5 mM (10 mg/mL) with 50 mM Tris-HCl, aliquoted and stored in −20° C. until use. 2× concentrations of thiol isomerases were prepared (final concentrations as indicated in each assay) and mixed with 1.2 mM DTT (final 0.3 mM) and 0.4 mM insulin (final 0.1 mM) using a thiol isomerase activity assay buffer. Insulin precipitation from enzyme-mediated reduction was assayed in 96-well clear bottom plates at 650 nm absorption.

[10] = molecular target: T1, SARS-CoV-2 M^pro; experiment: SARS-CoV-2 M^pro proteolytic activity; format: biochemical
[11] = 25 μg/g PGHG, intraperitoneal injection
[12] = PGHG 25 mg/kg (Example 1, FIG. 1)
[13] = intravenous infusion, 25 μg/g PGHG

With `O=C(O[C@@H]1[C@@H](O)[C@H](Oc2cc(O)c3c(c2)O[C@H](c2ccccc2)CC3=O)O[C@@H]2COC(=O)c3cc(O)c(O)c(O)c3-c3c(cc(O)c(O)c3O)C(=O)O[C@@H]12)c1cc(O)c(O)c(O)c1` [PGHG, pinocembrin 7-O-(3″-galloyl-4″,6″-(S)-hexahydroxydiphenoyl)-beta-D-glucose] as the compound, how does the IC50 [1] read?
Its IC50 is 4.9 µM.

And the IC50 [2]?
Its IC50 is 3.9 µM.

What about the IC50 [3] of the same compound?
Its IC50 is 6.5 µM.

And the mean fibrin fluorescence [4, 11]?
The mean fibrin fluorescence was 33.44±7.53 % of control.

What about the mean platelet accumulation [4, 11] of the same compound?
The mean platelet accumulation was 29.56±9.08 % of control.

And the fibrin formation [4, 12]?
Its fibrin formation is 21±3 % of controls.

And the platelet accumulation [4, 12]?
The platelet accumulation was 18±6 % of control levels.

And the “fibrin formation, fluorescence compared to controls” value [4, 13]?
The value was 21±3.7%.

And the “platelet accumulation, fluorescence compared to controls” value [4, 13]?
The value was 18±6.2%.

And the “inhibition of PDI (in words)” value [5]?
The value was “low micromolar range; also recorded: inhibit PDI”.

What about the IC50 ([5]; read-out: PDI reductase activity IC50) of the same compound?
The IC50 was 1.5 ± 0.6 µM.

And the IC50 [6]?
Its IC50 is 7.8 µM.

And the IC50 [7]?
The IC50 was 3.3 µM.

What about the “Modeling shows gallic acid interaction with His41 or Glu166” value [8] of the same compound?
The value was “His41; Glu166”.

What about the “inhibition of PDI in insulin reductase assay (in words)” value [9] of the same compound?
Its value is “low micromolar range”.

What about the IC50 [10] of the same compound?
The IC50 was 6.5 µM.
